Patent publication US12496327B2, “Methods and compositions for restoring STMN2 levels” (President and Fellows of Harvard College, priority 2019, dated 2025)
Where a SMILES comes first, the peptide text is derived from it. The star is where a group is joined. Cbz = O=C(OCc1ccccc1)*

Key:
hMNs = test: Neurite outgrowth assay (Sholl analysis) of hMNs; format: cell-based, human; settings: STMN2+/+ hMNs, 10 μM
Method: Given the reported role of STMN2 in regulating axonal growth by promoting the dynamic instability of microtubules (77), phenotypic assays were carried out characterizing neurite outgrowth in the STMN2−/− hMNs. After 7 days in culture, sorted hMNs were fixed and stained for β-III-tubulin to label the neuronal processes (FIG. 4E).
Individual Tuj1-positive neurons used for Sholl analyses were randomly selected and imaged using a Nikon Eclipse TE300 with a 40× objective. The neurites were traced using the ImageJ (NIH) plugin NeuronJ (78), and Sholl analysis was performed using the Sholl tool of Fiji (96), quantifying the number of intersections at 10-μm intervals from the cell body. Statistical analysis was performed by comparing the number of intersections of KO clones with the parental WT line for each 10-μm interval using Prism 6 (Graph Pad, La Jolla, CA, USA). Significance was assessed by a standard Student's t-test, with a p value of p<0.05 considered as significant.

STMN2 cryptic exon = test: RT-PCR detection of STMN2 cryptic exon in hMNs; format: cell-based, human; settings: hMNs treated with proteasome inhibitor
Text: TDP-43 plays an important role in the nucleus regulating RNA splicing, and recent studies highlight its ability to suppress non-conserved or cryptic exons to maintain intron integrity (80). When cryptic exons are included in RNA transcripts, in many cases, their inclusion can affect normal levels of the gene product by disrupting its translation or by promoting nonsense-mediated decay (80). […] The sequencing data was examined for evidence of cryptic exons in genes observed to be reproducibly regulated by TDP-43 in human cancer cells (81). […] To accomplish this goal, an RT-PCR assay was developed to detect transcripts containing the cryptic exon (FIG. 5F). […] Total RNA was isolated from neurons using RNeasy Mini Kit (Qiagen) according to manufacturer's instructions. A total of 300-1000 ng of total RNA was used to synthesize cDNA by reverse transcription according to the iSCRIPT kit (Bio-rad). RT-PCR was then performed using one cryptic exon-specific primer and then analyzed using the Agilent 2200 Tapestation.

TDP-43 [1] = test: Immunoblot of TDP-43 in detergent-soluble (RIPA) and detergent-insoluble (UREA) fractions; format: cell-based, human
Method: To determine what happened to TDP-43 after proteasome inhibition, TDP-43 levels were examined by immunoblot analysis in both the detergent-soluble and detergent-insoluble fractions. […] Finally, STMN2 levels in neurons treated with either a short-term high dose or a long-term low dose of MG-132 were probed.
For analysis of TDP-43 and STMN2 protein expression levels, d10 MNs were lysed in RIPA buffer (150 mM Sodium Chloride; 1% Triton X-100; 0.5% sodium deoxycholate; 0.1% SDS; 50 mM Tris pH 8.0) containing protease and phosphatase inhibitors (Roche) for 20 min on ice, and centrifuged at high speed. 200 μL of RIPA buffer per well of 24-well culture were routinely used, which yielded ˜20 μg of total protein as determined by BCA (Thermo Scientific). After two washes with RIPA buffer, insoluble pellets were resuspended in 200 μl of UREA buffer (Bio-Rad). For immunoblot assays 2-3 μg of total protein were separated by SDS-PAGE (BioRad), transferred to PDVF membranes (BioRad) and probed with antibodies against TDP-43 (1:1000, ProteinTech Group), GAPDH (1:1000, Millipore) and STMN2 (1:3000, Novus). Insoluble pellets were loaded based on protein concentration of correspondent RIPA-soluble counterparts. […] GAPDH levels were used to normalized each sample, and LiCor software was used to quantitate protein band signal.

STMN2 transcript = test: qRT-PCR analysis of STMN2 expression in hMNs; format: cell-based, human; settings: either a short-term high dose or a long-term low dose, both cases
Method: Total RNA was isolated from d10 MNs for RNA-Seq experiments and validation assays using Trizol LS (Invitrogen) according to manufacturer's instructions. 500 μL were added per well of the 24-well cultures. A total of 300-1000 ng of total RNA was used to synthesize cDNA by reverse transcription according to the iSCRIPT kit (Bio-rad). Quantitative RT-PCR (qRT-PCR) was then performed using SYBR green (Bio-Rad) and the iCycler system (Bio-rad). Quantitative levels for all genes assayed were normalized using GAPDH expression. […] All primer sequences are available upon request. For next-generation RNA sequencing (RNA-Seq), at least two technical replicas per siRNA sample or AAVS1-TDP43 genotype were included in the analyses. After RNA extraction, samples with RNA integrity numbers (RIN) above 7.5, determined by a bioAnalyzer, were used for library preparation. In brief, RNA sequencing libraries were generated from ˜250 ng of total RNA using the illumina TruSeq RNA kit v2, according to the manufacturer's directions. Libraries were sequenced at the Harvard Bauer Core Sequencing facility on a HiSeq 2000 platform. All FASTQ files were analyzed using the bcbioRNASeq workflow and toolchain (90). The FASTQ files were aligned to the GRCh37/hg19 reference genome. Differential expression testing was performed using DESeq2 suite of bioinformatics tools (38). […]

TDP-43 [2] = test: TDP-43 localization by immunostaining, Pearson's correlation with DAPI; format: cell-based, human
Method: (§1) A previous study established that proteasome inhibition in hMNs could trigger accumulation of mutant SOD-1 (31). It was, therefore, examined whether MG-132-mediated proteasome inhibition affected TDP-43 localization in hMNs as a potential model of sporadic ALS. First, the range and timing of small molecule treatment that could inhibit the proteasome without inducing overt cellular toxicity was established (FIGS. 14A-14D). […] Then a pulse-chase experiment was performed to determine the consequences of proteasome inhibition on TDP-43 localization (FIG. 5A). […] Thus, proteasome inhibition in hMNs induces a TDP-43 mislocalization that is reversible.
For immunofluorescence, cells were fixed with ice-cold 4% PFA for 15 minutes at 4° C., permeabilized with 0.2% Triton-X in 1×PBS for 45 minutes and blocked with 10% donkey serum in 1×PBS-T (0.1% Tween-20) for 1 hour. Cells were then incubated overnight at 4° C. with primary antibody (diluted in blocking solution). At least 4 washes (5 min incubation each) with 1×PBS-T were carried out, before incubating the cells with secondary antibodies for 1 hour at room temperature (diluted in blocking solution). Nuclei were stained with DAPI. […] Micrographs were analyzed using FIJI software to determine the correlation coefficient.

motor neurons = test: Cell Titer Glo neuronal survival assay; format: cell-based, human
Text: (§2) N=6 separate wells of neurons. (Unpaired t test, P value <0.05). […] N=triplicate wells. Cells are viable after 1 day of treatment at all the concentrations tested and lower concentrations are tolerated for more extended periods of time. […] N=4 separate wells of neurons (Unpaired t test, P value <0.05).
as §1

STMN2 mRNA = STMN2 mRNA expression in HUES3, IG2 and CN7 cell lines stressed with MG132; format: cell-based, human
Method: Three cell lines, HUES3, IG2 (Stmn2 KO), and CN7 (cryptic exon deletion) were treated with normal media or media+1 uM MG132 for 24 hours to stress the cells. In HUES3 cells, the stressed condition had 52% STMN2 mRNA expression compared to the unstressed condition. In IG2 (Stmn2 KO) condition, unstressed cells had 13% expression, and when stressed, expression increased to 42%. […] It was shown that if several exons are knocked out the expression goes down, but if the TDP-43 binding site is removed, expression goes way up.

proteasome = test: Proteasome activity assay (luciferase substrate) in neurons treated with MG-132; format: cell-based, human
Text: as §2, §1

STMN2 transcripts = test: ASO effect on STMN2 cryptic exon and full length transcripts during TDP-43 depletion; format: cell-based

C[C@@H](N)[C@H]1CC[C@H](C(=O)Nc2ccncc2)CC1 [Y-27632]
neurite outgrowth (hMNs): enhancing the outgrowth

CC(C)C[C@H](NC(=O)[C@H](Cc1ccccc1)NC(=O)c1cnccn1)B(O)O [Bortezomib]
transcripts containing the STMN2 cryptic exon (PCR product) (STMN2 cryptic exon): presence of transcripts containing the STMN2 cryptic exon

CC(C)C[C@@H](C=O)NC(=O)[C@H](CC(C)C)NC(=O)[C@H](CC(C)C)NC(=O)OCc1ccccc1 [MG-132] (Cbz-Leu-Leu-Leu-aldehyde)
TDP-43 levels in soluble lysates (TDP-43 [1]; control neurons, low dose, detergent-soluble (RIPA) fraction): significantly decreased
TDP-43 in UREA (insoluble) fraction (TDP-43 [1]; detergent-insoluble fraction): become insoluble
STMN2 mRNA levels (STMN2 transcript): significant decreases
TDP-43 staining following washout (TDP-43 [2]; 4 days after washout of 24 hour 1 μM pulse): indistinguishable to unchallenged neurons
TDP-43 staining in the nucleus (TDP-43 [2]; after 24 hour 1 μM pulse): greatly diminished
cell viability (neuronal survival) (motor neurons; 1 day of treatment, all concentrations tested (FIG. 14D)): viable
tolerance of neurons to treatment without overt cellular toxicity (motor neurons; overnight 1 μM treatment): could withstand
transcripts containing the STMN2 cryptic exon (PCR product) (STMN2 cryptic exon): presence of transcripts containing the STMN2 cryptic exon
STMN2 mRNA expression (STMN2 mRNA; CN7 (Cryptic Exon Deletion) cells, 1 uM for 24 hours (stressed)): 473%
STMN2 mRNA expression (STMN2 mRNA; HUES3 cells, 1 uM for 24 hours, compared to the unstressed condition): 52%
STMN2 mRNA expression (STMN2 mRNA; IG2 (Stmn2 KO) cells, 1 uM for 24 hours (stressed)): 42%
proteasome activity (proteasome; neurons treated with MG-132, N=4 wells (FIG. 14E)): significantly decreased proteasome activity
proteasome activity (proteasome; overnight 1 μM treatment of hMNs): less than 10 % of normal activity

TCTTCAGTATTGCTATTCAT (2'-MOE nucleotides, further chemistry not given here) [ASO (SEQ ID NO: 11), antisense oligonucleotide targeting the abortive or altered STMN2 RNA]
ability to decrease the abundance of cryptic exon containing transcripts (STMN2 transcripts; 2.5 μM (FIG. 69A)): effectiveness
ability to increase the abundance of full length STMN2 transcripts (STMN2 transcripts; 2.5 μM, during TDP-43 depletion (FIG. 69B)): effectiveness
